Laboratory results published in PubChem BioAssay AID2060910 (Molecular Pharmacology Branch, DTP, NCI, 2025).
Blank lines part the entries; values can stand above or below the compound they belong to.

Tested on: 242566-281-R-J2-PDC complex spheroid viability
Experiment: Anticancer human tumor 242566-281-R-J2-PDC patient-derived pancreatic carcinoma cell line growth inhibition [RAS]
Details: for IC50: curve of first compound; for viability, T/C: stronger effect = lower value
Method in brief: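 Multi-cell-type spheroids: tumor cells plus HUVEC endothelial cells and mesenchymal stem cells. RAS-pathway inhibitors were combined with targeted agents, each dosed in half-log steps down from clinical Cmax, or from 10 microM when Cmax was unknown.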

[1] = second compound 0.0316 µM, first compound 0.0316 µM
[2] = second compound 0.0316 µM, first compound 0.1 µM
[3] = second compound 0.0316 µM, first compound 0.316 µM
[4] = second compound 0.0316 µM, first compound 1 µM
[5] = second compound 0.0316 µM, first compound 3.16 µM
[6] = second compound 0.0316 µM, first compound 10 µM
[7] = second compound 0.1 µM, first compound 0.0316 µM
[8] = second compound 0.1 µM, first compound 0.1 µM
[9] = second compound 0.1 µM, first compound 0.316 µM
[10] = second compound 0.1 µM, first compound 1 µM
[11] = second compound 0.1 µM, first compound 3.16 µM
[12] = second compound 0.1 µM, first compound 10 µM
[13] = second compound 0.316 µM, first compound 0.0316 µM
[14] = second compound 0.316 µM, first compound 0.1 µM
[15] = second compound 0.316 µM, first compound 0.316 µM
[16] = second compound 0.316 µM, first compound 1 µM
[17] = second compound 0.316 µM, first compound 3.16 µM
[18] = second compound 0.316 µM, first compound 10 µM
[19] = second compound 1 µM, first compound 0.0316 µM
[20] = second compound 1 µM, first compound 0.1 µM
[21] = second compound 1 µM, first compound 0.316 µM
[22] = second compound 1 µM, first compound 1 µM
[23] = second compound 1 µM, first compound 3.16 µM
[24] = second compound 1 µM, first compound 10 µM
[25] = second compound 3.16 µM, first compound 0.0316 µM
[26] = second compound 3.16 µM, first compound 0.1 µM
[27] = second compound 3.16 µM, first compound 0.316 µM
[28] = second compound 3.16 µM, first compound 1 µM
[29] = second compound 3.16 µM, first compound 3.16 µM
[30] = second compound 3.16 µM, first compound 10 µM
[31] = second compound 10 µM, first compound 0.0316 µM
[32] = second compound 10 µM, first compound 0.1 µM
[33] = second compound 10 µM, first compound 0.316 µM
[34] = second compound 10 µM, first compound 1 µM
[35] = second compound 10 µM, first compound 3.16 µM
[36] = second compound 10 µM, first compound 10 µM
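Further: spheroids exposed to compound for 7 days before readout.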
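Wherever viability, T/C is given: 100% = DMSO vehicle control wells.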

IC50 (second compound 0.000949 µM): 364 nM | IC50 (second compound 0.003 µM): 95.1 nM | IC50 (second compound 0.00949 µM): < 31.6 nM | IC50 (second compound 0.03 µM): < 31.6 nM | IC50 (second compound 0.0949 µM): < 31.6 nM | IC50 (second compound 0.3 µM): < 31.6 nM
SMILES: CC(Nc1ccc2c(c1)OCCn1cc(N3C(=O)OCC3C(F)F)nc1-2)C(N)=O (stereo not drawn) + CCn1c(-c2cc(N3CCN(C)CC3)cnc2C(C)OC)c2c3cc(ccc31)-c1csc(n1)CC(NC(=O)C1CC1C)C(=O)N1CCCC(N1)C(=O)OCC(C)(C)C2
viability, T/C (second compound 0.000949 µM, first compound 0.0316 µM): 85.8% | viability, T/C (second compound 0.000949 µM, first compound 0.1 µM): 85.2% | viability, T/C (second compound 0.000949 µM, first compound 0.316 µM): 39.8% | viability, T/C (second compound 0.000949 µM, first compound 1 µM): 39.1% | viability, T/C (second compound 0.000949 µM, first compound 3.16 µM): 26.5% | viability, T/C (second compound 0.000949 µM, first compound 10 µM): 11.5% | viability, T/C (second compound 0.003 µM, first compound 0.0316 µM): 70.6% | viability, T/C (second compound 0.003 µM, first compound 0.1 µM): 47.3% | viability, T/C (second compound 0.003 µM, first compound 0.316 µM): 32.9% | viability, T/C (second compound 0.003 µM, first compound 1 µM): 22.4% | viability, T/C (second compound 0.003 µM, first compound 3.16 µM): 14.5% | viability, T/C (second compound 0.003 µM, first compound 10 µM): 5.29% | viability, T/C (second compound 0.00949 µM, first compound 0.0316 µM): 40.7% | viability, T/C (second compound 0.00949 µM, first compound 0.1 µM): 25.1% | viability, T/C (second compound 0.00949 µM, first compound 0.316 µM): 18.2% | viability, T/C (second compound 0.00949 µM, first compound 1 µM): 11.3% | viability, T/C (second compound 0.00949 µM, first compound 3.16 µM): 4.65% | viability, T/C (second compound 0.00949 µM, first compound 10 µM): 3.19% | viability, T/C (second compound 0.03 µM, first compound 0.0316 µM): 26.4% | viability, T/C (second compound 0.03 µM, first compound 0.1 µM): 17.9% | viability, T/C (second compound 0.03 µM, first compound 0.316 µM): 10.6% | viability, T/C (second compound 0.03 µM, first compound 1 µM): 5.37% | viability, T/C (second compound 0.03 µM, first compound 3.16 µM): 1.87% | viability, T/C (second compound 0.03 µM, first compound 10 µM): 1.22% | viability, T/C (second compound 0.0949 µM, first compound 0.0316 µM): 16.7% | viability, T/C (second compound 0.0949 µM, first compound 0.1 µM): 11.5% | viability, T/C (second compound 0.0949 µM, first compound 0.316 µM): 7.81% | viability, T/C (second compound 0.0949 µM, first compound 1 µM): 3.68% | viability, T/C (second compound 0.0949 µM, first compound 3.16 µM): 1.35% | viability, T/C (second compound 0.0949 µM, first compound 10 µM): 0.91% | viability, T/C (second compound 0.3 µM, first compound 0.0316 µM): 16.5% | viability, T/C (second compound 0.3 µM, first compound 0.1 µM): 11.3% | viability, T/C (second compound 0.3 µM, first compound 0.316 µM): 5.47% | viability, T/C (second compound 0.3 µM, first compound 1 µM): 3.22% | viability, T/C (second compound 0.3 µM, first compound 3.16 µM): 1.55% | viability, T/C (second compound 0.3 µM, first compound 10 µM): 1.07%

IC50 (second compound 0.00316 µM): 753 nM | IC50 (second compound 0.01 µM): 926 nM | IC50 (second compound 0.0316 µM): 1710 nM | IC50 (second compound 0.1 µM): 627 nM | IC50 (second compound 0.316 µM): 1430 nM | IC50 (second compound 1 µM): 1290 nM
SMILES: CC(Nc1ccc2c(c1)OCCn1cc(N3C(=O)OCC3C(F)F)nc1-2)C(N)=O (stereo not drawn) + C=CC(=O)N1CCN(c2nc(OCC3CCCN3C)nc3c(F)c(-c4nc(N)cc(C)c4C(F)(F)F)c(Cl)cc23)C(C)C1
viability, T/C (second compound 0.00316 µM, first compound 0.0316 µM): 86.4% | viability, T/C (second compound 0.00316 µM, first compound 0.1 µM): 113% | viability, T/C (second compound 0.00316 µM, first compound 0.316 µM): 76.7% | viability, T/C (second compound 0.00316 µM, first compound 1 µM): 42.7% | viability, T/C (second compound 0.00316 µM, first compound 3.16 µM): 34.7% | viability, T/C (second compound 0.00316 µM, first compound 10 µM): 27.4% | viability, T/C (second compound 0.01 µM, first compound 0.0316 µM): 105% | viability, T/C (second compound 0.01 µM, first compound 0.1 µM): 115% | viability, T/C (second compound 0.01 µM, first compound 0.316 µM): 80.3% | viability, T/C (second compound 0.01 µM, first compound 1 µM): 48.3% | viability, T/C (second compound 0.01 µM, first compound 3.16 µM): 37.1% | viability, T/C (second compound 0.01 µM, first compound 10 µM): 24.4% | viability, T/C [1]: 96.1% | viability, T/C [2]: 102% | viability, T/C [3]: 76.1% | viability, T/C [4]: 63.4% | viability, T/C [5]: 36.6% | viability, T/C [6]: 30.9% | viability, T/C [7]: 103% | viability, T/C [8]: 105% | viability, T/C [9]: 66% | viability, T/C [10]: 41.7% | viability, T/C [11]: 37.2% | viability, T/C [12]: 27.8% | viability, T/C [13]: 89.8% | viability, T/C [14]: 91.2% | viability, T/C [15]: 72% | viability, T/C [16]: 55.3% | viability, T/C [17]: 40% | viability, T/C [18]: 30.6% | viability, T/C [19]: 104% | viability, T/C [20]: 117% | viability, T/C [21]: 85.9% | viability, T/C [22]: 53.4% | viability, T/C [23]: 47% | viability, T/C [24]: 35.1%

IC50 (second compound 0.0316 µM): 437 nM | IC50 (second compound 0.1 µM): 184 nM | IC50 (second compound 0.316 µM): 106 nM | IC50 (second compound 1 µM): 60.3 nM | IC50 (second compound 3.16 µM): < 31.6 nM | IC50 (second compound 10 µM): < 31.6 nM
SMILES: CC(Nc1ccc2c(c1)OCCn1cc(N3C(=O)OCC3C(F)F)nc1-2)C(N)=O (stereo not drawn) + C#Cc1c(F)ccc2cc(O)cc(-c3ncc4c(N5CC6CCC(C5)N6)nc(OCC56CCCN5CC(F)C6)nc4c3F)c12
viability, T/C [1]: 101% | viability, T/C [2]: 82.8% | viability, T/C [3]: 56.6% | viability, T/C [4]: 32.5% | viability, T/C [5]: 22.3% | viability, T/C [6]: 14.2% | viability, T/C [7]: 75% | viability, T/C [8]: 63.7% | viability, T/C [9]: 37.3% | viability, T/C [10]: 22.4% | viability, T/C [11]: 13.2% | viability, T/C [12]: 8.11% | viability, T/C [13]: 68% | viability, T/C [14]: 51.2% | viability, T/C [15]: 24.8% | viability, T/C [16]: 8.79% | viability, T/C [17]: 7.1% | viability, T/C [18]: 4.15% | viability, T/C [19]: 58.1% | viability, T/C [20]: 43.7% | viability, T/C [21]: 23% | viability, T/C [22]: 9.54% | viability, T/C [23]: 6.78% | viability, T/C [24]: 3.29% | viability, T/C [25]: 46.5% | viability, T/C [26]: 39.2% | viability, T/C [27]: 14% | viability, T/C [28]: 9.39% | viability, T/C [29]: 5.47% | viability, T/C [30]: 3.71% | viability, T/C [31]: 44% | viability, T/C [32]: 32.7% | viability, T/C [33]: 19.8% | viability, T/C [34]: 6.3% | viability, T/C [35]: 5.27% | viability, T/C [36]: 2.24%

IC50 (second compound 0.0316 µM): 7270 nM | IC50 (second compound 0.1 µM): 2950 nM | IC50 (second compound 0.316 µM): 1750 nM | IC50 (second compound 1 µM): 701 nM | IC50 (second compound 3.16 µM): 404 nM | IC50 (second compound 10 µM): 392 nM
SMILES: CC(C)NCC(C(=O)N1CCN(c2ncnc3c2C(C)CC3O)CC1)c1ccc(Cl)cc1 (stereo not drawn) + C#Cc1c(F)ccc2cc(O)cc(-c3ncc4c(N5CC6CCC(C5)N6)nc(OCC56CCCN5CC(F)C6)nc4c3F)c12
viability, T/C [1]: 74.9% | viability, T/C [2]: 116% | viability, T/C [3]: 86.2% | viability, T/C [4]: 84.8% | viability, T/C [5]: 66.6% | viability, T/C [6]: 43.7% | viability, T/C [7]: 97.8% | viability, T/C [8]: 78.6% | viability, T/C [9]: 74.5% | viability, T/C [10]: 54.8% | viability, T/C [11]: 58% | viability, T/C [12]: 34.5% | viability, T/C [13]: 81.2% | viability, T/C [14]: 81.1% | viability, T/C [15]: 64.9% | viability, T/C [16]: 55% | viability, T/C [17]: 45.8% | viability, T/C [18]: 23.9% | viability, T/C [19]: 71.8% | viability, T/C [20]: 68.3% | viability, T/C [21]: 59.4% | viability, T/C [22]: 41.4% | viability, T/C [23]: 37.5% | viability, T/C [24]: 18.4% | viability, T/C [25]: 62.8% | viability, T/C [26]: 64.2% | viability, T/C [27]: 53.9% | viability, T/C [28]: 34.5% | viability, T/C [29]: 24.8% | viability, T/C [30]: 16.4% | viability, T/C [31]: 61.6% | viability, T/C [32]: 59.6% | viability, T/C [33]: 52.7% | viability, T/C [34]: 38.1% | viability, T/C [35]: 22% | viability, T/C [36]: 14.3%
